In patent US4415567A, “7α-Methoxycephalosporin derivatives, and antibacterial drugs containing the same” (Eisai Co., Ltd., priority 1980, dated 1983):
Values after ≈ are worked out from the molar mass of the structure shown. Where a name gives a salt, the structure may show the parent alone. Read-outs that look alike come from different tables or passages of the source.

Experiments:
Type in all cases: cell-based
[1] = tested on: Klebsielle pneumoniae EK-6; test: MIC, standard agar dilution method, Klebsielle pneumoniae EK-6
Experimental: (§1) Minimal inhibitory concentration (MIC) was determined by the standard agar dilution method of the Japan Society of Chemotherapy.
(§2) Compounds were dissolved in appropriate solvents (sterilized water for sodium salts and acetone-water [1:1] for free acids) and serial two-fold dilutions were made. Sodium salt of Cefazolin was chosen as the control compound.
(§3) One-ml aliquots of each dilution were mixed with 9 ml of Mueller Hinton gar in petri-dishes to make agar plates containing the compound at serially diluted concentrations. After agar hardened, plates were put in an incubator at 37° C. for 1.5-2 hours with the lids slightly open to evaporate acetone off the plates.
(§4) Test organisms were grown for 18 hours at 37° C. in Trypticase Soy broth and diluted in saline to approximately 10^6 colony forming units per ml. A loopful of each cell suspension was applied on the agar plate mentioned above and the plates were incubated for 18 hours at 37° C. before MIC was determined.
(§5) The results are shown in Table 2, wherein the compound of Example 5 was selected and used in a form of free carboxylic acid as set forth in the Example 5, Item (a).

[2] = tested on: Pseudomonas aeruginosa EP-172; test: MIC, standard agar dilution method, Pseudomonas aeruginosa EP-172; conditions: EP172, Mueller Hinton agar, 18 hours, 37° C.
Experimental: as §1, §2, §3, §4, §5

[3] = tested on: Proteus bulgaris E-18; test: MIC, standard agar dilution method, Proteus bulgaris E-18; conditions: Mueller Hinton agar, 18 hours, 37° C.
Experimental: as §1, §2, §3, §4, §5

[4] = tested on: Escherichia coli NIHJ; test: MIC, standard agar dilution method, Escherichia coli NIHJ
Experimental: as §1, §2, §3, §4, §5

[5] = tested on: Proteus morganii EP-14; test: MIC, standard agar dilution method, Proteus morganii EP-14; conditions: Morganella morganii, EP14, Mueller Hinton agar, 18 hours, 37° C.
Experimental: as §1, §2, §3, §4, §5

[6] = tested on: Serratia marcescens ES-75; test: MIC, standard agar dilution method, Serratia marcescens ES-75; conditions: ES75, Mueller Hinton agar, 18 hours, 37° C.
Experimental: as §1, §2, §3, §4, §5

[7] = tested on: Staphylococcus aureus 209-P; test: MIC, standard agar dilution method, Staphylococcus aureus 209-P; conditions: Mueller Hinton agar, 18 hours, 37° C.
Experimental: as §1, §2, §3, §4, §5

[8] = Klebsielle pneumoniae EK-6, Mueller Hinton agar, 18 hours, 37° C., read-out: MIC
[9] = Escherichia coli NIHJ, Mueller Hinton agar, 18 hours, 37° C., read-out: MIC

Row | Structure (SMILES) | MIC ([1]; 18 h) [µg/mL] | MIC [2] [µg/mL] | MIC [3] [µg/mL] | MIC ([4]; Escherichia coli, 18 h) [µg/mL] | MIC [5] [µg/mL] | MIC [6] [µg/mL] | MIC [7] [µg/mL] | MIC [1, 8] [µg/mL] | MIC [4, 9] [µg/mL]
1 | Cc1nnc(SCC2=C(C(=O)O)N3C(=O)[C@@H](NC(=O)Cn4cnnn4)[C@H]3SC2)s1 [Control, Sodium salt of Cefazolin, reference compound] | 1.56 | > 100 | > 3200 | 1.56 | > 100 | > 100 | 0.4 |  | 
2 | CO[C@@]1(NC(=O)[C@H](NC(=O)c2coc3cc(OC(C)=O)c(OC(C)=O)cc3c2=O)c2ccc(O)cc2)C(=O)N2C(C(=O)O)=C(CSc3nnnn3C)CS[C@@H]21 [Example 1, 7β-[D-2-(6,7-Diacetoxychromone-3-carboxamido)-2-(4-hydroxyphenyl)acetamido]-7α-methoxy-3-(1-methyl-5-tetrazolyl)thiomethyl-3-cephem-4-carboxylic acid] |  | 0.4 (≈ 0.503 µM) | 0.4 (≈ 0.503 µM) |  | 3.13 (≈ 3.93 µM) | ≤ 0.1 | 1.56 (≈ 1.96 µM) | ≤ 0.1 | 0.4 (≈ 0.503 µM)
3 | CO[C@@]1(NC(=O)[C@H](NC(=O)c2coc3c(OC(C)=O)c(OC(C)=O)ccc3c2=O)c2ccc(O)cc2)C(=O)N2C(C(=O)O)=C(CSc3nnnn3C)CS[C@@H]21 [Example 2] |  | 0.8 (≈ 1.01 µM) | 6.25 (≈ 7.85 µM) |  | 50 (≈ 62.8 µM) | 0.8 (≈ 1.01 µM) | 1.56 (≈ 1.96 µM) | ≤ 0.1 | 3.13 (≈ 3.93 µM)
4 | CO[C@@]1(NC(=O)[C@H](NC(=O)c2coc3c(O)c(O)ccc3c2=O)c2ccc(O)cc2)C(=O)N2C(C(=O)O)=C(CSc3nnnn3C)CS[C@@H]21 [Example 4, 7β-[D-2-(7,8-Dihydroxychromone-3-carboxyamido)-2-(4-hydroxyphenyl)acetamido]-7α-methoxy-3-(1-methyl-5-tetrazolyl)thiomethyl-3-cephem-4-carboxylic acid] |  | 0.8 (≈ 1.12 µM) | 3.13 (≈ 4.4 µM) |  | 50 (≈ 70.3 µM) | 0.8 (≈ 1.12 µM) | 3.13 (≈ 4.4 µM) | ≤ 0.1 | 3.13 (≈ 4.4 µM)
5 | CO[C@@]1(NC(=O)[C@H](NC(=O)c2coc3cc(O)c(O)cc3c2=O)c2ccccc2)C(=O)N2C(C(=O)O)=C(COC(C)=O)CS[C@@H]21 [Example 5, 7β-[D-2-(6,7-Dihydroxychromone-3-carboxamido)-2-phenylacetamido]-7α-methoxy-3-acetoxymethyl-3-cephem-4-carboxylic acid] |  | 3.13 (≈ 4.89 µM) | 0.8 (≈ 1.25 µM) |  | 25 (≈ 39.1 µM) | 0.2 (≈ 0.313 µM) | 3.13 (≈ 4.89 µM) | ≤ 0.1 | 0.8 (≈ 1.25 µM)
6 | CO[C@@]1(NC(=O)[C@H](NC(=O)c2coc3cc(O)c(O)cc3c2=O)c2ccccc2)C(=O)N2C(C(=O)O)=C(CSc3nnc(C)s3)CS[C@@H]21 [Example 6, 7β-[D-2-(6,7-Dihydroxychromone-3-carboxyamido)-2-phenylacetamido]-7α-methoxy-3-[2-5-methyl-2-(1,3,4-thiadiazolyl)]thiomethyl-3-cepnem-4-carboxylic acid] |  | 3.13 (≈ 4.4 µM) | 0.8 (≈ 1.12 µM) |  | 12.5 (≈ 17.6 µM) | ≤ 0.1 | 3.13 (≈ 4.4 µM) | ≤ 0.1 | 0.8 (≈ 1.12 µM)
7 | CO[C@@]1(NC(=O)[C@H](NC(=O)c2coc3c(O)c(O)ccc3c2=O)c2ccccc2)C(=O)N2C(C(=O)O)=C(COC(C)=O)CS[C@@H]21 [Example 7, 7β-[D-2-(7,8-Dihydroxychromone-3-carboxyamido)-2-phenylacetamido]-7α-methoxy-3-acetoxymethyl-3-cephem-4-carboxylic acid] |  | 3.13 (≈ 4.89 µM) | 50 (≈ 78.2 µM) |  | 100 (≈ 156 µM) | 12.5 (≈ 19.5 µM) | 6.25 (≈ 9.77 µM) | 0.2 (≈ 0.313 µM) | 3.13 (≈ 4.89 µM)
8 | CO[C@@]1(NC(=O)[C@H](NC(=O)c2coc3ccccc3c2=O)c2ccc(O)cc2)C(=O)N2C(C(=O)O)=C(CSc3nnnn3C)CS[C@@H]21 [Example 10, 7β-[D-2-(Chromone-3-carboxamido)-2-(4-hydroxyphenyl)acetamido]-7α-methoxy-3-(1-methyl-5-tetrazolyl)thiomethyl-3-cephem-4-carboxylic acid] |  | 25 (≈ 36.8 µM) | 50 (≈ 73.6 µM) |  | 25 (≈ 36.8 µM) | 12.5 (≈ 18.4 µM) | 0.4 (≈ 0.589 µM) | 12.5 (≈ 18.4 µM) | 12.5 (≈ 18.4 µM)
9 | CO[C@@]1(NC(=O)[C@H](NC(=O)c2coc3c(C)c(OCc4ccccc4)ccc3c2=O)c2ccccc2)C(=O)N2C(C(=O)O)=C(COC(C)=O)CS[C@@H]21 [Example 13, 7β-[D-2-(7-Benzyloxy-8-methylchromone-3-carboxamido)-2-phenylacetamido]-7α-methoxy-3-acetoxymethyl-3-cephem-4-carboxylic acid] |  | 12.5 (≈ 17.2 µM) | 0.8 (≈ 1.1 µM) |  | 1.56 (≈ 2.14 µM) | 3.13 (≈ 4.3 µM) | 0.4 (≈ 0.55 µM) | 3.13 (≈ 4.3 µM) | 3.13 (≈ 4.3 µM)
10 | CO[C@@]1(NC(=O)[C@H](NC(=O)c2coc3cc(O)c(O)cc3c2=O)c2ccc(O)cc2)C(=O)N2C(C(=O)O)=C(CSc3nnnn3CC(=O)O)CS[C@@H]21 [Example 15, 7β-[D-2-(6,7-Dihydroxychromone-3-carboxamido)-2-(4-hydroxyphenyl)acetamido]-7α-methoxy-3-(1-carboxymethyl-5-tetrazolyl)thiomethyl-3-cephem-4-carboxylic acid] |  | 3.13 (≈ 4.14 µM) | 1.56 (≈ 2.06 µM) |  | 12.5 (≈ 16.5 µM) | 0.4 (≈ 0.529 µM) | 6.25 (≈ 8.27 µM) | ≤ 0.1 | 6.25 (≈ 8.27 µM)
11 | CO[C@@]1(NC(=O)[C@H](NC(=O)c2coc3c(O)c(O)ccc3c2=O)c2ccc(O)cc2)C(=O)N2C(C(=O)O)=C(CSc3nnnn3CC(=O)O)CS[C@@H]21 [Example 18, 7β-[D-2-(7,8-Dihydroxychromone-3-carboxamido)-2-(4-hydroxyphenyl)acetamido]-7α-methoxy-3-(1-carboxymethyl-5-tetrazolyl)thiomethyl-3-cephem-4-carboxylic acid] |  | 6.25 (≈ 8.27 µM) | 6.25 (≈ 8.27 µM) |  | 50 (≈ 66.2 µM) | 3.13 (≈ 4.14 µM) | 25 (≈ 33.1 µM) | 0.8 (≈ 1.06 µM) | 25 (≈ 33.1 µM)
12 | COC(=O)Cn1nnnc1SCC1=C(C(=O)O)N2C(=O)[C@](NC(=O)[C@H](NC(=O)c3coc4cc(O)c(O)cc4c3=O)c3ccc(O)cc3)(OC)[C@H]2SC1 [Example 19, 7β-[D-2-(6,7-Dihydroxychromone-3-carboxamido)-2-(4-hydroxyphenyl)acetamido]-7α-methoxy-3-(1-methoxycarbonylmethyl-5-tetrazolyl)thiomethyl-3-cephem-4-carboxylic acid] |  | 0.8 (≈ 1.04 µM) | 0.4 (≈ 0.52 µM) |  | 1.56 (≈ 2.03 µM) | ≤ 0.1 | 3.13 (≈ 4.07 µM) | ≤ 0.1 | 1.56 (≈ 2.03 µM)
13 | CCOC(=O)Oc1cc2occ(C(=O)N[C@@H](C(=O)N[C@]3(OC)C(=O)N4C(C(=O)O)=C(COC(C)=O)CS[C@@H]43)c3ccc(O)cc3)c(=O)c2cc1OC(=O)OCC [Example 22, 7β-[D-2-(6,7-Bis(ethoxycarbonyloxy)chromone-3-carboxamido)-2-(4-hydroxyphenyl)acetamido]-7α-methoxy-3-acetoxymethyl-3-cephem-4-carboxylic acid] |  | 0.8 (≈ 1 µM) | 1.56 (≈ 1.95 µM) |  | 25 (≈ 31.3 µM) | 0.4 (≈ 0.5 µM) | 1.56 (≈ 1.95 µM) | ≤ 0.1 | 6.25 (≈ 7.82 µM)
14 | CO[C@@]1(NC(=O)[C@H](NC(=O)c2coc3cc(OC(=O)OCC(Cl)(Cl)Cl)c(OC(=O)OCC(Cl)(Cl)Cl)cc3c2=O)c2ccccc2)C(=O)N2C(C(=O)O)=C(COC(C)=O)CS[C@@H]21 [Example 24, 7β-[D-2-(6,7-Bis(2,2,2-trichloroethoxy-carbonyloxy)chromon-3-carboxamido)2-phenylacetamido]-7α-methoxy-3-acetoxymethyl-3-cephem-4-carboxylic acid] |  | 1.56 (≈ 1.58 µM) | 3.13 (≈ 3.16 µM) |  | 25 (≈ 25.2 µM) | 0.8 (≈ 0.808 µM) | 6.25 (≈ 6.31 µM) | ≤ 0.1 | 12.5 (≈ 12.6 µM)
15 | CO[C@@]1(NC(=O)[C@H](NC(=O)c2coc3cc(OC(=O)OCC(Cl)(Cl)Cl)c(OC(=O)OCC(Cl)(Cl)Cl)cc3c2=O)c2ccc(O)cc2)C(=O)N2C(C(=O)O)=C(COC(C)=O)CS[C@@H]21 [Example 25, 7β-[D-2-(6,7-Bis(2,2,2-trichloroethoxycarbonyloxy)chromone-3-carboxamido)-2-(4-hydroxyphenyl)acetamido]-7α-methoxy-3-acetoxymethyl-3-cephem-4-carboxylic acid] |  | 0.8 (≈ 0.795 µM) | 3.13 (≈ 3.11 µM) |  | 25 (≈ 24.8 µM) | 0.8 (≈ 0.795 µM) | 3.13 (≈ 3.11 µM) | ≤ 0.1 | 12.5 (≈ 12.4 µM)
16 | COC(=O)Cn1nnnc1SCC1=C(C(=O)O)N2C(=O)[C@](NC(=O)[C@H](NC(=O)c3coc4cc(OC(=O)OCC(Cl)(Cl)Cl)c(OC(=O)OCC(Cl)(Cl)Cl)cc4c3=O)c3ccc(O)cc3)(OC)[C@H]2SC1 [Example 26, 7β-[D-2-(6,7-Bis(2,2,2-trichloroethoxycarbonyloxy)chromone-3-carboxamido)-2-(4-hydroxyphenyl)acetamido]-7α-methoxy-3-(1-methoxycarbonylmethyl-5-tetrazolyl)thiomethyl-3-cephem-4-carboxylic acid] |  | 1.56 (≈ 1.39 µM) | 0.8 (≈ 0.714 µM) |  | 6.25 (≈ 5.58 µM) | 0.2 (≈ 0.178 µM) | 12.5 (≈ 11.2 µM) | ≤ 0.1 | 6.25 (≈ 5.58 µM)
